Reference: ChEMBL document CHEMBL1158909, “A New Brominated Diphenyl Ether from a Philippine Dysidea Species” (J Nat Prod, 1990)
Active and inactive are the calls of the source. The rule behind the calls is not given here.

Each compound was assayed on Bacillus subtilis (assay: Antimicrobial activity against Bacillus subtilis).
Assay type: functional, organism-based

Compound | Activity
COc1c(Br)c(Br)c(Br)c(Br)c1Oc1ccccc1Br | inactive
Oc1c(Br)c(Br)c(Br)c(Br)c1Oc1ccc(Br)cc1Br | Active
Oc1c(Br)c(Br)c(Br)c(Br)c1Oc1ccccc1Br | Active
COc1c(Br)c(Br)c(Br)c(Br)c1Oc1ccc(Br)cc1Br | inactive

What follows are compounds tested on Staphylococcus aureus (assay: Antimicrobial activity against Staphylococcus aureus).
Assay type: functional, organism-based

Compound | Activity
COc1c(Br)c(Br)c(Br)c(Br)c1Oc1ccccc1Br | inactive
Oc1c(Br)c(Br)c(Br)c(Br)c1Oc1ccc(Br)cc1Br | Active
Oc1c(Br)c(Br)c(Br)c(Br)c1Oc1ccccc1Br | Active
COc1c(Br)c(Br)c(Br)c(Br)c1Oc1ccc(Br)cc1Br | inactive
